Source: US12697343B2, “Intravenous istaroxime for the treatment of acute heart failure” (Seismic Pharmaceuticals Operations LLC, priority 2021, dated 2026)
Structures can show the parent of a compound that is named as a salt.

System: patients hospitalized for acute heart failure (AHF)
Experiment: Echocardiographic parameters (tissue Doppler echocardiography), phase II trial of 24 h istaroxime infusion
Format: in vivo, human
Conditions: for A wave mean change from baseline / CI mean change from baseline / E wave mean change from baseline / E/A ratio mean change from baseline / E/e′ ratio mean change from baseline / EDV Index mean change from baseline / EDV mean change from baseline / ESV Index mean change from baseline / ESV mean change from baseline / IVC diameter mean change from baseline / LAA mean change from baseline / LAV mean change from baseline / LAVI mean change from baseline / LVEF mean change from baseline / PASP mean change from baseline / SVI mean change from baseline / S′ mean change from baseline / TAPSE mean change from baseline / e′ mean change from baseline: 0.5 μg/Kg/min; for E/e′ change from baseline to 24 h (primary endpoint): 0.5 μg/kg/min (cohort 1), mITT, hydrochloride
Excerpt: The measurement of one or more cardiac parameters disclosed herein can be measured by Echocardiography which may be performed on subjects according to international standards (see, for example, Lang R M et a I. J Am Soc Echocardiogr 2005; 18(12): 1440-63; Nagueh S F et al. Eur J Echocardiogr 2009; 10(2): 165-93; Evangelista A et a I. Eur J Echocardiogr 2008; 9(4):438-48).
In some embodiments, cardiac parameters can be measured as follows: • 1. Cardiac dimension measures: • a. Left ventricle end diastolic diameter (EDD): measured with M-mode echocardiography at the level of mitral valve (MV) leaflets from parasternal long axis view (PLAX) (normal range [N R]: 42-59 mm males and 39-53 mm females); • b. Left ventricle end systolic diameter (ESD): measured with M-mode echocardiography at the level of mitral valve (MV) leaflets from PLAX (N R: 25-35 mm): • c. Left ventricle end diastolic volume (EDV): measured with M-mode echocardiography at the level of mitral valve (MV) leaflets from PLAX (N R: 67-155 mL males and 56-104 mL females); • d. Left ventricle end systolic volume (ESV): measured with M-mode echocardiography at the level of mitral valve (MV) leaflets from PLAX (N R: 22-58 mL males and 19-49 mL females); • e. Left atrium diameter (LAD): measured at end-ventricular systole with M-mode echocardiography from PLAX. (N R: 30-40 mm males and 27-38 mm females) • f. Left atrium area (LAA): measured from apical four chamber view (NR: £20 cm2); and • g. Left atrium volume (LAV): derived from area-length measured from apical four chamber view (N R: 18-58 mL males and 22-52 mL females). • 2. Left ventricle diastolic function parameters: • a. E wave: measured from mitral valve pulsed wave Doppler, is the peak velocity of early filling. […] A wave: measured from mitral valve pulsed wave Doppler is the peak velocity of late atrial filling. Not evaluable in subjects with AF: • c. E wave deceleration time (EDT): measured from mitral valve pulsed wave Doppler represent the slope of the descending part of E wave; • d. E/A ratio: determines the type of diastolic filling pattern (normal E/A=1-2 and EDT=150-200 ms, abnormal relaxation E/A<1 and EDT>240 ms, pseudonormal E/A=0.8-1.5: restrictive E/A^32 and EDT <160 ms). Not evaluable in subjects with AF; • e. Ea: measured with tissue Doppler method at the lateral and septal side of the mitral annulus from apical four chamber view is the early diastolic velocity. The value has been calculated as the average between Ea lateral and Ea septal. (NR310 cm/s) (see Nagueh S F et al. Eur J Echocardiogr. 2009:10(2):165-93); • f. Aa: measured with tissue Doppler method at the lateral and septal side of the mitral annulus from apical four chamber view is the late atrial diastolic velocity. The value has been calculated as the average between Aa lateral and Aa septal. Not evaluable in subjects with AF; and • g. E/Ea ratio: this is a derived measure from E and Ea value. This is highly correlated with left ventricle filling pressure and with prognosis in subjects with HF. (NR: <13) (see Nagueh S F et al. supra). • 3. Left ventricle systolic function parameters: • a. Left ventricle ejection fraction (LVEF): measured with Simpson biplane method according to international recommendations from apical four chamber view and apical two chamber view. (NR ^355%) (see Lang R M et al. J Am Soc Echocardiogr. 2005:18(12): 1440-63); and • b. Sa: measured with tissue Doppler method at the lateral and septal side of the mitral annulus from apical four chamber view. The value has been calculated as the average between Sa lateral and Sa septal. […] Overall cardiac contraction parameters: • a. Stroke volume (SV): is a derived measure obtained with the application of Bernoulli's formula using the dimension of left ventricle outflow tract (LVOT) as diameter and LVOT time velocity integral as velocity. (NR>60 mL/beat); • b. Cardiac output (CO): is derived by the multiplication of SV× heart rate (HR) (NR: >4 L/min); • c. […]

[1] = 0.5 μg/kg/min, mean ± standard deviation

C[C@]12CCC(=NOCCN)C[C@@H]1C(=O)C[C@@H]1[C@@H]2CC[C@]2(C)C(=O)CC[C@@H]12 [Istaroxime, (E,Z)-3-((2-aminoethoxy)imino)androstane-6,17-dione hydrochloride]
A wave mean change from baseline (6 hours): 1.76 cm/s
CI mean change from baseline (6 hours): 0.20 l/min/m^2
E wave mean change from baseline (6 hours): -4.35 cm/s
E/A ratio mean change from baseline (6 hours): −0.28
E/e′ ratio mean change from baseline (6 hours): −3.48
EDV Index mean change from baseline (6 hours): 0.85 ml/m^2
EDV mean change from baseline (6 hours): 1.47 mL
ESV Index mean change from baseline (6 hours): −2.54 ml/m^2
ESV mean change from baseline (6 hours): -4.89 mL
IVC diameter mean change from baseline (6 hours): −2.41 mm
LAA mean change from baseline (6 hours): −0.38 cm^2
LAV mean change from baseline (6 hours): 0.05 mL
LAVI mean change from baseline (6 hours): −0.51 mL/m^2
LVEF mean change from baseline (6 hours): 2.03%
PASP mean change from baseline (6 hours): −4.21 mmHg
SVI mean change from baseline (6 hours): 5.66 ml/beat/m^2
S′ mean change from baseline (6 hours): 0.63 cm/s
TAPSE mean change from baseline (6 hours): 0.41 mm
e′ mean change from baseline (6 hours): 0.63 cm/s
A wave mean change from baseline (24 hours): 5.13 cm/s
CI mean change from baseline (24 hours): 0.27 l/min/m^2
E wave mean change from baseline (24 hours): -8.14 cm/s
E/A ratio mean change from baseline (24 hours): −0.64
E/e′ ratio mean change from baseline (24 hours): −4.55
EDV Index mean change from baseline (24 hours): −0.20 ml/m^2
EDV mean change from baseline (24 hours): -0.71 mL
ESV Index mean change from baseline (24 hours): −3.78 ml/m^2
ESV mean change from baseline (24 hours): -7.11 mL
IVC diameter mean change from baseline (24 hours): −4.30 mm
LAA mean change from baseline (24 hours): −1.70 cm^2
LAV mean change from baseline (24 hours): -7.94 mL
LAVI mean change from baseline (24 hours): −4.32 mL/m^2
LVEF mean change from baseline (24 hours): 3.03%
PASP mean change from baseline (24 hours): −10.89 mmHg
SVI mean change from baseline (24 hours): 5.33 ml/beat/m^2
S′ mean change from baseline (24 hours): 0.68 cm/s
TAPSE mean change from baseline (24 hours): 0.73 mm
e′ mean change from baseline (24 hours): 0.94 cm/s
A wave mean change from baseline (48 hours): -0.94 cm/s
CI mean change from baseline (48 hours): 0.19 l/min/m^2
E wave mean change from baseline (48 hours): -5.21 cm/s
E/A ratio mean change from baseline (48 hours): −0.28
E/e′ ratio mean change from baseline (48 hours): −2.56
EDV Index mean change from baseline (48 hours): −0.07 ml/m^2
EDV mean change from baseline (48 hours): -0.59 mL
ESV Index mean change from baseline (48 hours): −1.19 ml/m^2
ESV mean change from baseline (48 hours): -2.57 mL
IVC diameter mean change from baseline (48 hours): −4.16 mm
LAA mean change from baseline (48 hours): −2.01 cm^2
LAV mean change from baseline (48 hours): -9.17 mL
LAVI mean change from baseline (48 hours): −5.01 mL/m^2
LVEF mean change from baseline (48 hours): 1.19%
PASP mean change from baseline (48 hours): −11.18 mmHg
SVI mean change from baseline (48 hours): 3.68 ml/beat/m^2
S′ mean change from baseline (48 hours): 0.22 cm/s
TAPSE mean change from baseline (48 hours): −0.34 mm
e′ mean change from baseline (48 hours): 0.32 cm/s
E/e′ change from baseline to 24 h (primary endpoint) (mean ± standard deviation): −4.55 ± 4.75
E/e′ change from baseline to 24 h (primary endpoint) (mean ± standard deviation, listed as istaroxime): −4.55±4.75
E/A ratio change at 24 h [1]: −0.64 ± 0.79
LV ejection fraction change at 24 h [1]: 3.03 ± 4.04%
LV end-diastolic volume index change at 24 h [1]: −0.20 ± 5.45 mL/m^2
LV end-systolic volume index change at 24 h [1]: −3.78 ± 6.76 mL/m^2
Left atrial area change at 24 h [1]: −1.70 ± 2.46 cm^2
Left atrial volume index change at 24 h [1]: −4.32 ± 7.28 mL/m^2
Stroke volume index change at 24 h [1]: 5.33 ± 6.67 mL/beat/m^2
S′ change at 24 h [1]: 0.68 ± 0.91 cm/s
